Experimental data published in BindingDB's records for doi:10.1021/jm0105833 (Harvard University, 2002).
Numbered stars: 1 amine (or outer) side, 2 acyl side, 3 side chain; on linkers, the order of the positions; unused ones are H or OH. Square brackets hold non-standard residues; d marks the D form. Peptide text beside a SMILES is read from it. Phe(ψ(S)CH(OH)CH2N)Pro = O=C([C@@H]1CCCN1C[C@H](O)[C@H](Cc1ccccc1)N[*:1])[*:2]; Nle = CCCC[C@H](N)C(=O)O; Orn = NCCC[C@H](N)C(=O)O

Columns and labels:
[1] = biological target: Human immunodeficiency virus type 1 protease (Human immunodeficiency virus 1, UniProt Q72874); test: Affinity for HIV Protease
Thermolysin = biological target: T1, Thermolysin (Bacillus thermoproteolyticus, UniProt P00800); test: Binding affinity against Thermolysin
T1 sequence (P00800 whole entry): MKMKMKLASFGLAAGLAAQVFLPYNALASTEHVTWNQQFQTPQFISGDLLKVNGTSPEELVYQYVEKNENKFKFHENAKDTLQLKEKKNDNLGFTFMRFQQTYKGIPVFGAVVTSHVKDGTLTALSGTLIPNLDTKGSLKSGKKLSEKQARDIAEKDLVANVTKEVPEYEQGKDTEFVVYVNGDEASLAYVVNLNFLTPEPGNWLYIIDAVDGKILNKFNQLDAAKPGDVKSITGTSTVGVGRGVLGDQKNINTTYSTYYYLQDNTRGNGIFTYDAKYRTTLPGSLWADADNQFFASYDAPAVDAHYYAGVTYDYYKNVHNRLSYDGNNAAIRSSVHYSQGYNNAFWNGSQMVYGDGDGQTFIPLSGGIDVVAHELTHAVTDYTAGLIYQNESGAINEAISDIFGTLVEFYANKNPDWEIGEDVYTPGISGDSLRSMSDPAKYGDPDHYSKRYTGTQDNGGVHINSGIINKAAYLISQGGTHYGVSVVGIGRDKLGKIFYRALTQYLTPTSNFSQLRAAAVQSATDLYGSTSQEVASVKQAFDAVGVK

Serine protease 1 = Serine protease 1 (Homo sapiens, UniProt P07477); test: Binding affinity against trypsin
[2] = biological target: T2, Fatty acid-binding protein, intestinal (Homo sapiens, UniProt P12104); test: Binding affinity against Fatty acid-binding protein
T2 sequence (P12104 whole entry): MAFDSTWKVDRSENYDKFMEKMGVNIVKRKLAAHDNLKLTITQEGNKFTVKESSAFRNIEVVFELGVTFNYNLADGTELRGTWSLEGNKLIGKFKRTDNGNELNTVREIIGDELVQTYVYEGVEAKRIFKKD

[3] = biological target: Purine nucleoside phosphorylase (Homo sapiens) (UniProt P00491); test: Binding affinity against Purine Nucleoside Phosphorylase
Prothrombin = Prothrombin (Homo sapiens, UniProt P00734); test: Binding affinity against thrombin
[4] = biological target: T3, Mast cell carboxypeptidase A (Homo sapiens, UniProt P15088); test: Binding affinity against Carboxypeptidase A
T3 sequence (P15088 whole entry): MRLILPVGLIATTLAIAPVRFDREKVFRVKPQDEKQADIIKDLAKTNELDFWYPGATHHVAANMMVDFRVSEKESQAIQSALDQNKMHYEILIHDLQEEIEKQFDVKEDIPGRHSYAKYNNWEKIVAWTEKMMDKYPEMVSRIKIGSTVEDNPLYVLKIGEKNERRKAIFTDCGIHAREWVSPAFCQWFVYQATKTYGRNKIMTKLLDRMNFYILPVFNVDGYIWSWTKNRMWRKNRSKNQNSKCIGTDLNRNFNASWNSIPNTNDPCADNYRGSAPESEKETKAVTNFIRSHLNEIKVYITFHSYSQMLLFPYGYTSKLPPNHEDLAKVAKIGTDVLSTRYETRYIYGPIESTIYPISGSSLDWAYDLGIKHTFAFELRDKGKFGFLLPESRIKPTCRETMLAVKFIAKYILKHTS

Purine nucleoside phosphorylase (Homo sapiens), sequence (P00491 whole entry, looked up): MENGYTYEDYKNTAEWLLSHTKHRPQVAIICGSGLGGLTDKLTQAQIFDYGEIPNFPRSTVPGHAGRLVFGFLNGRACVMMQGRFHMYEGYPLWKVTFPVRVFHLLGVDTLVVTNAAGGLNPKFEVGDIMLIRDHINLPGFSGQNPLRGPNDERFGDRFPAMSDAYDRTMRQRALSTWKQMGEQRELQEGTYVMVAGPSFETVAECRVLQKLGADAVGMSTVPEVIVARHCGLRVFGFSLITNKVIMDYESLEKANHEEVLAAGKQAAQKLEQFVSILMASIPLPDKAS
Serine protease 1, sequence (P07477 whole entry): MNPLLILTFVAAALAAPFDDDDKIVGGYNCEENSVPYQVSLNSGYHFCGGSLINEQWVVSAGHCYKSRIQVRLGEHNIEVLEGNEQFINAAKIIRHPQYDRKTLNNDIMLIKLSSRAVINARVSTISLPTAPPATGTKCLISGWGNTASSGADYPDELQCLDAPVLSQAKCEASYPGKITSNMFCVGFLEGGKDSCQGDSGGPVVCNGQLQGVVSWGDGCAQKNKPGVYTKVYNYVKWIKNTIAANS

Row | SMILES | Kd [1] [nM] | also measured
1 | CC(C)[C@H](NC(=O)N(C)Cc1ccccn1)C(=O)N[C@@H](Cc1ccccc1)C[C@@H](O)[C@H](Cc1ccccc1)NC(=O)[C@@H](NC(=O)N(C)Cc1ccccn1)C(C)C [(2S)-N-[(2S,3R,5S)-3-hydroxy-5-[(2S)-3-methyl-2-{[methyl(pyridin-2-ylmethyl)carbamoyl]amino}butanamido]-1,6-diphenylhexan-2-yl]-3-methyl-2-{[methyl(pyridin-2-ylmethyl)carbamoyl]amino}butanamide] | 0.0347 | –
2 | CC1(C)S[C@H]([C@H](NC(=O)Cc2ccccc2)C(=O)NCc2ccccc2)N[C@H]1C(=O)N[C@@H](CO)Cc1ccccc1 [GR-126045] | 7.9 | –
3 | CC(C)[C@H](N)C(=O)N[C@@H](Cc1c[nH]c2ccccc12)C(=O)O [Val-Trp] (H-Val-Trp-OH) | – | Kd (Thermolysin): 1.23 µM
4 | CCCC[C@H](NC(=O)[C@H](CCCC)NC(=O)[C@@H](NC(=O)[C@@H](NC(C)=O)[C@@H](C)O)[C@@H](C)CC)C(=O)N[C@@H](CCCN)C(=O)N[C@@H](CCCN=C(N)N)C(N)=O (Ac-TI[Nle][Nle][Orn]R-NH2) | 776 | –
5 | CC(C)C[C@H](N)C(=O)NO [(S)-2-Amino-4-methyl-pentanoic acid hydroxyamide] | – | Kd (Thermolysin): 191 µM
6 | O=C(N[C@H]1c2ccccc2C[C@H]1O)[C@H](Cc1ccccc1)CC(O)C[C@@H](Cc1ccccc1)C(=O)N[C@H]1c2ccccc2C[C@H]1O [L-700417] | 0.708 | –
7 | O=C1N(Cc2ccc3ccccc3c2)[C@H](Cc2ccccc2)[C@H](O)[C@@H](O)[C@@H](Cc2ccccc2)N1Cc1ccc2ccccc2c1 | 0.302 | –
8 | NCCCCc1ccccc1 [4-Phenyl-butylamine] | – | Kd (Serine protease 1): 20000 µM
9 | COC(=O)[C@@H](NC(=O)[C@@H](NC(=O)[C@H](C)N1CCC([C@H](C)NC(=O)[C@H](C)N)=C[C@@H](Cc2ccccc2)C1)C(C)C)C(C)C [SB-203238] | 427 | –
10 | CC(C)C[C@H](NP(=O)(O)O)C(N)=O [(P-Leu-NH2) (1-Carbamoyl-3-methyl-butyl)-phosphoramidic acid] | – | Kd (Thermolysin): 1.29 µM
11 | CCCCCCCCCCCCCCCC(=O)O | – | Kd [2]: 3.72 µM
12 | CC(C)C[C@H](NC(CCc1ccccc1)C(=O)O)C(=O)N[C@@H](Cc1c[nH]c2ccccc12)C(=O)O (stereo partly specified) | – | Kd (Thermolysin): 0.074 µM
13 | CC(C)[C@H](NC(=O)N(C)Cc1ccccn1)C(=O)N[C@@H](Cc1ccccc1)[C@@H](O)[C@H](O)[C@H](Cc1ccccc1)NC(=O)[C@@H](NC(=O)N(C)Cc1ccccn1)C(C)C [(2S)-N-[(2S,3R,4R,5S)-3,4-dihydroxy-5-[(2S)-3-methyl-2-{[methyl(pyridin-2-ylmethyl)carbamoyl]amino}butanamido]-1,6-diphenylhexan-2-yl]-3-methyl-2-{[methyl(pyridin-2-ylmethyl)carbamoyl]amino}butanamide] | 0.977 | –
14 | O=P(O)(O)OP(=O)(O)OP(=O)(O)OP(=O)(O)OC[C@H]1O[C@@H](n2cnc3cncnc32)[C@H](O)[C@@H]1O | – | Kd [3]: 1.41 µM
15 | CC[C@H](C)[C@H](NC(=O)[C@@H]1CCCN1C[C@H](O)[C@H](Cc1ccccc1)NC(=O)[C@H](CC(N)=O)NC(=O)[C@H](CC(C)C)NC(=O)[C@H](CO)NC(C)=O)C(=O)N[C@H](C(=O)OC)C(C)C (Ac-SLN[Phe(ψ(S)CH(OH)CH2N)Pro]IV-OMe) | 0.234 | –
16 | CC1(C)SC(C(NC(=O)Cc2ccccc2)C(=O)NCc2ccccc2)NC1C(=O)NC(Cc1ccccc1)C(O)CC(=O)NCC1=NC2C=CC=CC2=N1 (stereo unspecified) [GR-137615] | 0.204 | –
17 | CC(C)CN(C[C@@H](O)[C@H](Cc1ccccc1)NC(=O)O[C@H]1CCOC1)S(=O)(=O)c1ccc(N)cc1 [VX-478] | 0.589 | –
18 | O=P(O)(O)OP(=O)(O)OP(=O)(O)OP(=O)(O)OP(=O)(O)OC[C@H]1O[C@@H](n2cnc3cncnc32)[C@H](O)[C@@H]1O | – | Kd [3]: 1.1 µM
19 | CC(C)C[C@H](NP(=O)(O)O[C@@H]1O[C@@H](C)[C@H](O)[C@@H](O)[C@H]1O)C(=O)N[C@@H](Cc1c[nH]c2ccccc12)C(=O)O [(S)-2-{(R)-2-[Hydroxy-((2R,3R,4R,5R,6S)-3,4,5-trihydroxy-6-methyl-tetrahydro-pyran-2-yloxy)-phosphorylamino]-4-methyl-pentanoylamino}-3-(1H-indol-3-yl)-propionic acid] | – | Kd (Thermolysin): 0.028 µM
20 | CC(C)[C@H](NC(=O)N(C)Cc1ccccn1)C(=O)N[C@@H](Cc1ccccc1)[C@H](O)[C@H](O)[C@H](Cc1ccccc1)NC(=O)[C@@H](NC(=O)N(C)Cc1ccccn1)C(C)C [(2S)-N-[(2S,3R,4S,5S)-3,4-dihydroxy-5-[(2S)-3-methyl-2-{[methyl(pyridin-2-ylmethyl)carbamoyl]amino}butanamido]-1,6-diphenylhexan-2-yl]-3-methyl-2-{[methyl(pyridin-2-ylmethyl)carbamoyl]amino}butanamide] | 0.0832 | –
21 | N=C(N)NCCC[C@H](NC(=O)[C@@H]1CCCN1C(=O)[C@@H](N)Cc1ccccc1)C(=O)O [5-amino(imino)methylamino-2-[1-[2-amino-3-phenyl-(2S)-propanoyl]-(5S)-dihydro-1H-5-pyrrolylcarboxamido]-(2S)-pentanoic acid] | – | Kd (Prothrombin): 0.575 µM
22 | CC(C)[C@H](NC(=O)N(C)Cc1ccccn1)C(=O)N[C@@H](Cc1ccccc1)[C@H](O)[C@@H](O)[C@H](Cc1ccccc1)NC(=O)[C@@H](NC(=O)N(C)Cc1ccccn1)C(C)C [JMC51852 Inhibitor PP] | 0.0759 | –
23 | O=P(O)(O)OP(=O)(O)OC[C@H]1O[C@@H](n2cnc3cncnc32)[C@H](O)[C@@H]1O | – | Kd [3]: 0.603 µM
24 | C=CO [E1203] | 3.9 | –
25 | O=[N+]([O-])Nc1ccccc1 [Nitroanilide] | – | Kd (Thermolysin): 0.427 µM
26 | NCCCC[C@H](NC(=O)CN)C(=O)O [(S)-6-Amino-2-(2-amino-acetylamino)-hexanoic acid] (H-Gly-Lys-OH) | – | Kd [4]: 129 µM
